How the values were obtained:
Conditions in all cases: Compound concentration 10.0 uM
[1] = biological target: Beta-1 adrenergic receptor (Homo sapiens) (UniProt P08588)
[2] = biological target: Alpha-1D adrenergic receptor (Homo sapiens) (UniProt P25100)
[3] = biological target: Sodium-dependent dopamine transporter (Homo sapiens, UniProt Q01959)
[4] = biological target: Alpha-1A adrenergic receptor (Homo sapiens) (UniProt P35348)
[5] = biological target: Histamine H1 receptor (Homo sapiens) (UniProt P35367)
Sequence of Histamine H1 receptor (Homo sapiens) (P35367 whole entry): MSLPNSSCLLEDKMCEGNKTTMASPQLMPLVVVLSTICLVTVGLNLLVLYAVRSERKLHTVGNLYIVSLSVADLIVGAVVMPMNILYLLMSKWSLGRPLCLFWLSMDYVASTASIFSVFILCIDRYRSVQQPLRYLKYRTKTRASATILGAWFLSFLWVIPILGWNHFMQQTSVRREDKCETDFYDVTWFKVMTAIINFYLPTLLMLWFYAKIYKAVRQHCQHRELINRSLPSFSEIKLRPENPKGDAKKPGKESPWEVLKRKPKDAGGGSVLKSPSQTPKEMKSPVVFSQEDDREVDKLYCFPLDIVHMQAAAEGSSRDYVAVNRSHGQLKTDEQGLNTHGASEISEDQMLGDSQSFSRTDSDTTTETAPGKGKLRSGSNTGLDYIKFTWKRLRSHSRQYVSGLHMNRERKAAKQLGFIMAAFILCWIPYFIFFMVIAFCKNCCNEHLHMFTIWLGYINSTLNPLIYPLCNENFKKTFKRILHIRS

[6] = biological target: GABA-A receptor; anion channel (Rattus norvegicus) (UniProt O09028+P15431+P18506+P18508+P19969+P20236+P23574+P23576+P28471+P28473+P30191+P62813+P63079+P63138+Q91ZM7+Q9ES14)
[7] = biological target: 5-hydroxytryptamine receptor 7 (Homo sapiens) (UniProt P34969)
Sequence of 5-hydroxytryptamine receptor 7 (Homo sapiens) (P34969 whole entry): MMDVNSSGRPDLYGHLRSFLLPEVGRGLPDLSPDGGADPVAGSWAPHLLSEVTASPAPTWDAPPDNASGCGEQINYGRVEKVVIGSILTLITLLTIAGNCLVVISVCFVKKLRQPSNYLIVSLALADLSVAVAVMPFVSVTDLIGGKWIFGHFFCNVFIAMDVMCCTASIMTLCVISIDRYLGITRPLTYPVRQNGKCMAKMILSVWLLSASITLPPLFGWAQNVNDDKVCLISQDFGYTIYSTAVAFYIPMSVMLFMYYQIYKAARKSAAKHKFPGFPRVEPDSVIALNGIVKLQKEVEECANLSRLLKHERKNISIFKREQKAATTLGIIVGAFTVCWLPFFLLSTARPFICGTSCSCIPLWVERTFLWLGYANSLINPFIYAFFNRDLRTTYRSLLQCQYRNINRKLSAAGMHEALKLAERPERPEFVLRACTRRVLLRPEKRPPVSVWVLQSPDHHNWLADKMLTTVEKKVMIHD

[8] = biological target: D(1A) dopamine receptor (Homo sapiens) (UniProt P21728)
[9] = biological target: Sodium-dependent noradrenaline transporter (Homo sapiens) (UniProt P23975)
Sequence of Sodium-dependent noradrenaline transporter (Homo sapiens) (P23975 whole entry): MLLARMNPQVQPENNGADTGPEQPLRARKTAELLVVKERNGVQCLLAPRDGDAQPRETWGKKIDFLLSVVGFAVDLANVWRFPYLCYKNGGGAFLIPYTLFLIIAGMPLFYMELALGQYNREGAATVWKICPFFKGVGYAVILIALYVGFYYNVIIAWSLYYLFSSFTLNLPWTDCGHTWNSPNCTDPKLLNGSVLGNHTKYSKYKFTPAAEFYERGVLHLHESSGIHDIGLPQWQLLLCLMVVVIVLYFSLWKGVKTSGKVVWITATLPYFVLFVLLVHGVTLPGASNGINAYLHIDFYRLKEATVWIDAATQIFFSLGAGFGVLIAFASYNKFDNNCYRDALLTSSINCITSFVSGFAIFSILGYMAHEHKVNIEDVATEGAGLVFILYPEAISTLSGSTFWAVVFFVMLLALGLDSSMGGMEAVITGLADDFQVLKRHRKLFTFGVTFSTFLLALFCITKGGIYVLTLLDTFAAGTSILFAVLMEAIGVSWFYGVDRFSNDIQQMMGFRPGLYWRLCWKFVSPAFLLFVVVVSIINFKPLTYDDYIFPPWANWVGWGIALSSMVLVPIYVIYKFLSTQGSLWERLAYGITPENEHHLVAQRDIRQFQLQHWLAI

[10] = biological target: 5-hydroxytryptamine receptor 2B (Homo sapiens) (UniProt P41595)
[11] = biological target: Alpha-2A adrenergic receptor (Homo sapiens) (UniProt P08913)
[12] = biological target: T1, Muscarinic acetylcholine receptor M1 (Homo sapiens) (UniProt P11229)
T1 sequence (whole entry): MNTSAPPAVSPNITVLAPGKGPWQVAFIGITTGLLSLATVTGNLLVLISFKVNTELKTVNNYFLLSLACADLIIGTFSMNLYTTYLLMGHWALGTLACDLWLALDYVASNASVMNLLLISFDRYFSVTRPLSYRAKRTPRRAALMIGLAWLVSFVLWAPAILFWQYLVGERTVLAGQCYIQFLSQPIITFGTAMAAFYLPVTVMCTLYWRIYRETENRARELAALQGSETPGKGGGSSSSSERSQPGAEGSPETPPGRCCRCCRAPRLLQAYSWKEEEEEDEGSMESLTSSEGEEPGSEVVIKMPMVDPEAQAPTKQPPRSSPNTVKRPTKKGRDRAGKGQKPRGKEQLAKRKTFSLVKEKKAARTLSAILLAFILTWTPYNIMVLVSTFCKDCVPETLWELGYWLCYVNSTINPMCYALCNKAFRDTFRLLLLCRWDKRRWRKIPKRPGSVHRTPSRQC

[13] = biological target: Alpha-2C adrenergic receptor (Homo sapiens) (UniProt P18825)
Rattus norvegicus = species: Rattus norvegicus
[14] = biological target: 5-hydroxytryptamine receptor 2C (Homo sapiens) (UniProt P28335)
Sequence of 5-hydroxytryptamine receptor 2C (Homo sapiens) (P28335 whole entry): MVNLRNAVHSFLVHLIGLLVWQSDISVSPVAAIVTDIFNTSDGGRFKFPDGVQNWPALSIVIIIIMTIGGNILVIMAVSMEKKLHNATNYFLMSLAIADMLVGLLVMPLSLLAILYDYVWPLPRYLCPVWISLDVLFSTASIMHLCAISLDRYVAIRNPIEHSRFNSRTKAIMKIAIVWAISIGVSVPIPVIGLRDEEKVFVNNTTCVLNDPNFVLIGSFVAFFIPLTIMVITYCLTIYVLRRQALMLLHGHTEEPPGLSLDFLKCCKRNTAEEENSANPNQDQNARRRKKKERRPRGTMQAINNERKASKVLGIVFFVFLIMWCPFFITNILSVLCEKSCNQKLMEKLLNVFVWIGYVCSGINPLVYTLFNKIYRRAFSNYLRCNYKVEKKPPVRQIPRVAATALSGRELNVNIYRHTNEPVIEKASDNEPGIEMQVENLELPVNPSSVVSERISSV

[15] = biological target: Sodium-dependent serotonin transporter (Homo sapiens) (UniProt P31645)
[16] = biological target: D(4) dopamine receptor (Homo sapiens) (UniProt P21917)
Sequence of D(4) dopamine receptor (Homo sapiens) (P21917 whole entry): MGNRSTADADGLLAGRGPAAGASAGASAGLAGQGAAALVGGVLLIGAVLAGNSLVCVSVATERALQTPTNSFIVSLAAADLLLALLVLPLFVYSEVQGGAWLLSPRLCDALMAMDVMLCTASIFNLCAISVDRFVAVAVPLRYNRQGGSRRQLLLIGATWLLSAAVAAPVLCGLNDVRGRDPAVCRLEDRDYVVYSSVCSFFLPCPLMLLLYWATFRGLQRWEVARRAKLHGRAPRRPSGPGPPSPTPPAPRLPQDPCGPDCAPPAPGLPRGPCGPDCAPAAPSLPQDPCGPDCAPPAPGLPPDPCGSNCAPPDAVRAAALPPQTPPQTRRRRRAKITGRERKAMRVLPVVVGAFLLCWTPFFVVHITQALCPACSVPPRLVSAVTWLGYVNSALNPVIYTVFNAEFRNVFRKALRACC

[17] = biological target: T2, 5-hydroxytryptamine receptor 3A (Homo sapiens) (UniProt P46098)
T2 sequence (whole entry): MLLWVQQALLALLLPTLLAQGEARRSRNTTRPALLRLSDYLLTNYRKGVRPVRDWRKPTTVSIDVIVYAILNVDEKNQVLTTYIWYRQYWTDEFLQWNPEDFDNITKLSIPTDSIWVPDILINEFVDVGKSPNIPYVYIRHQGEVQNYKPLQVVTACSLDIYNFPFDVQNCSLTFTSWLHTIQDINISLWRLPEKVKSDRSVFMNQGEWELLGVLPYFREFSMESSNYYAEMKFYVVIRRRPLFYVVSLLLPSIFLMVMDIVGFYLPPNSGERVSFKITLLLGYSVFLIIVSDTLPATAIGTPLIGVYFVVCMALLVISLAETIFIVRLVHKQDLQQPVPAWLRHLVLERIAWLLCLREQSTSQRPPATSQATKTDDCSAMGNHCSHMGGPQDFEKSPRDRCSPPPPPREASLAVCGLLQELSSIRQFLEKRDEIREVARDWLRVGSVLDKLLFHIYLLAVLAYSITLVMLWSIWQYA

[18] = biological target: D(2) dopamine receptor (Homo sapiens) (UniProt P14416)
Sequence of D(2) dopamine receptor (Homo sapiens) (P14416 whole entry): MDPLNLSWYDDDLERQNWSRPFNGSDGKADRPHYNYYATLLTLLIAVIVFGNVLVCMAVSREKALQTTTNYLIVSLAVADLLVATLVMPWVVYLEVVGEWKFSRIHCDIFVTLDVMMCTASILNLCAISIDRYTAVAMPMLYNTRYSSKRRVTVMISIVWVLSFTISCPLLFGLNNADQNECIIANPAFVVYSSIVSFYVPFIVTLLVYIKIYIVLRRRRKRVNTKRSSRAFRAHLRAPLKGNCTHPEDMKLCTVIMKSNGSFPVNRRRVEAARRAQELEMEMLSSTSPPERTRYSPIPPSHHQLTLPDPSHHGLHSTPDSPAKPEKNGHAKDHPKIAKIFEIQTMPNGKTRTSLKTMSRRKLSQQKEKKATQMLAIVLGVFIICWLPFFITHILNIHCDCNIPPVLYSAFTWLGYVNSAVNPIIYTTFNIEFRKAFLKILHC

[19] = biological target: Alpha-1B adrenergic receptor (Homo sapiens) (UniProt P35368)
Sequence of Alpha-1B adrenergic receptor (Homo sapiens) (P35368 whole entry): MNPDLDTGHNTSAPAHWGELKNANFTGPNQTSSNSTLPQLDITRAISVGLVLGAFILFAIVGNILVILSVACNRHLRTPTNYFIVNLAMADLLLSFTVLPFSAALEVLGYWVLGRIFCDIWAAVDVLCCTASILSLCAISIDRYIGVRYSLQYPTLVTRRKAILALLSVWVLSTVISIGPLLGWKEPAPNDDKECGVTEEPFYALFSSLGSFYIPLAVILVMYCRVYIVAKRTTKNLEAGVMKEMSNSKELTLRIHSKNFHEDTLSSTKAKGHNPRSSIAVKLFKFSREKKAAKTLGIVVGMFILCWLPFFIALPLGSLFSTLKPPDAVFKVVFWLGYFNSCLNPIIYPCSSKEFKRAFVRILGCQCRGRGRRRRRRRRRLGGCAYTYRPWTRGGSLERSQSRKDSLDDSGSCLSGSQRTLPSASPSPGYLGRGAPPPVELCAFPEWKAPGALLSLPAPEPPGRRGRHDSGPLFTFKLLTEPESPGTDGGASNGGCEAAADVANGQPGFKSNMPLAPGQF

[20] = biological target: T3, Muscarinic acetylcholine receptor M2 (Homo sapiens) (UniProt P08172)
T3 sequence (whole entry): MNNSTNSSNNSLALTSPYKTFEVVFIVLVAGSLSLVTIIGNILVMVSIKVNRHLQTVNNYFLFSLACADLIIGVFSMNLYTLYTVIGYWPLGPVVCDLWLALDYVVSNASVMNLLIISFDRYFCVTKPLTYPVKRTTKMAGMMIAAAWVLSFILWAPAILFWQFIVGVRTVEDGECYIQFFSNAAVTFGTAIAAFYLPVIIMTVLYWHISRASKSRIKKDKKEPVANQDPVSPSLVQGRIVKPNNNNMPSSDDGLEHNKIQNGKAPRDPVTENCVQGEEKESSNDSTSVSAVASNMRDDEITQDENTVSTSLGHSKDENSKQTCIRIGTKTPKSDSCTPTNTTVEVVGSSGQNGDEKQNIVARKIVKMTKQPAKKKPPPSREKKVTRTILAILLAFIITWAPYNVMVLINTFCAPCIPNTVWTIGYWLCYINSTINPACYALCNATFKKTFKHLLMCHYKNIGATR

Measured: inhibition

Sequence of Beta-1 adrenergic receptor (Homo sapiens) (P08588 whole entry, looked up): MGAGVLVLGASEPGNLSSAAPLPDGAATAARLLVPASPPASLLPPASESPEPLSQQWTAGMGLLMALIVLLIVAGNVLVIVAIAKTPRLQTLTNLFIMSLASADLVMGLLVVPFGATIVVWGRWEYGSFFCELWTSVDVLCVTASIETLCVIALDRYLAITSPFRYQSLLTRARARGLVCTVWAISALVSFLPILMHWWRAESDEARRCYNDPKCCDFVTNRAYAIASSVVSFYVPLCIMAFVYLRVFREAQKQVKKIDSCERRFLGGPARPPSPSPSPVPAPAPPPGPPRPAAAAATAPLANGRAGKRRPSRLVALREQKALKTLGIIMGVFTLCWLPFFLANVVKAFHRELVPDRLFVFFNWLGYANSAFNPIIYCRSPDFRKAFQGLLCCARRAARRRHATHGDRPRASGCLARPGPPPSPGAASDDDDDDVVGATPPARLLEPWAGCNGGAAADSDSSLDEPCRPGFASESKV
Sequence of Sodium-dependent dopamine transporter (Q01959 whole entry): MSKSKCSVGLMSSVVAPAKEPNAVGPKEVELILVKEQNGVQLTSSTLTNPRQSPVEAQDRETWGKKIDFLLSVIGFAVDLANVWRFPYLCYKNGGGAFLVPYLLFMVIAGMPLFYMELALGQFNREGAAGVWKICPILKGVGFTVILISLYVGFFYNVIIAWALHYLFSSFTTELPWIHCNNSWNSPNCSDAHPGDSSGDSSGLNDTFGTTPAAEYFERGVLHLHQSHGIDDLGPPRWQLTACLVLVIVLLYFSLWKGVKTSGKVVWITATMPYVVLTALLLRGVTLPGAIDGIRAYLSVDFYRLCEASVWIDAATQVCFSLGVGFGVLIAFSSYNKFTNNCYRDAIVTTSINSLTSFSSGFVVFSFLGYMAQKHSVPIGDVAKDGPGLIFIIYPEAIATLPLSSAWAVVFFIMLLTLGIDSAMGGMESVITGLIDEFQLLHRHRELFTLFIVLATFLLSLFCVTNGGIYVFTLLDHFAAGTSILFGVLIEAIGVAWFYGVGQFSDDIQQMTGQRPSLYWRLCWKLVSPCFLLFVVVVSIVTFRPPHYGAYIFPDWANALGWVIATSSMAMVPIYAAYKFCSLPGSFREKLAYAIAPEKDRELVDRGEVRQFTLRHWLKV
Sequence of Alpha-1A adrenergic receptor (Homo sapiens) (P35348 whole entry): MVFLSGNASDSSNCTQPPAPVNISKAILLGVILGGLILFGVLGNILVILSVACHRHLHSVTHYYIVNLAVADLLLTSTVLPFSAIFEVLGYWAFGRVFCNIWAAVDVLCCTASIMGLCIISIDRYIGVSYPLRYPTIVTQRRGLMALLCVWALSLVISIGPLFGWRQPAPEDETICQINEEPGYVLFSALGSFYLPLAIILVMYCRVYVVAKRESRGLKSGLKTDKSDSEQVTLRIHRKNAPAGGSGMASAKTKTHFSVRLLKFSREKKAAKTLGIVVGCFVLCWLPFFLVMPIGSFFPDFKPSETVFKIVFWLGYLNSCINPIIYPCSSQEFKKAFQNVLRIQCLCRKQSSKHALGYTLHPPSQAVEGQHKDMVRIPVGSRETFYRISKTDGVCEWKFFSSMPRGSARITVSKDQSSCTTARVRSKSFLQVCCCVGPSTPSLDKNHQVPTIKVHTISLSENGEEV

CCOc1ccc(S(=O)(=O)Nc2ccc(Cl)cc2C#Cc2cnc(C(=O)O)cc2OC)c2ncccc12 [MSC-4381]
inactive: [1] 18.8% | [2] 20.8% | [3] 23.4% | [4] 13.3% | [5] 21.7% | [6] 0.15% | [7] 2.02% | [8] 8.58% | [9] 34.4% | [10] 8.83% | [11] 26% | [12] 16.3% | [13] 27.7% | Rattus norvegicus 45% | [14] 24.4% | [15] 6.49% | [16] 4.2% | [17] 9.43% | [18] 9.9% | [19] -9.4% | [20] -0.58%

COc1cc(C(=O)O)ncc1C#Cc1ccccc1NS(=O)(=O)c1cccc2c(N(C)C)ccnc12 [MSC-0516]
inactive: [1] 16.7% | [2] 1.48% | [4] 13.7% | [5] -1.47% | [6] 25.6% | [7] -2.53% | [8] 17.8% | [9] -7.14% | [10] 34.9% | [11] 44.4% | [12] 25% | [13] 13% | [14] 7.95% | [15] 3.99% | [16] 4.65% | [17] 1.13% | [18] -0.32% | [19] 16.9% | [20] 2.62%
active: [3] 80.3% | Rattus norvegicus 60.4%
